From patent US9844546B2, “Antibody against human HIF hydroxylase” (OXFORD UNIVERSITY INNOVATION LIMITED, priority 2001, dated 2017)

Experiments:
HIF-α/pVHL interaction = experiment: Interaction of HIF-1α and pVHL.HA reticulocyte IVTTs, anti-HA co-immunoprecipitation; type: biochemical, human; conditions: 100 μM added to the HIF-1α IVTT
Method: ^35S-Methionine labelled […] subunits and pVHL.HA were produced separately by IVTT (in vitro transcription and translation) in reticulocyte lysates. IVTTs were performed under different conditions, mixed, and assayed for interaction by anti-HA co-immunoprecipitation. These in vitro assays allowed analysis of the HIFα/pVHL interaction using the recombinant proteins.
Labelled HIF-1α and pVHL.HA were generated separately in reticulocyte lysates (IVTT), in the presence or absence of Co (II), desferrioxamine, or Fe(II). Lysates were mixed in various combinations, and interactions assayed by anti-HA immunoprecipitation.
• 1. G. L. Semenza, Genes Dev 14, 1983-91. (2000). • 2. N. V. Iyer, et al., Genes Dev. 12, 149-162 (1997). • 3. E. Maltepe, J. V. Schmidt, D. Baunoch, C. A. Bradfield, M. C. Simon, Nature 386, 403-407 (1997). • 4. G. L. Wang, B.-H. Jiang, E. A. Rue, G. L. Semenza, Proc. Natl. Acad. Sci. USA 92, 5510-5514 (1995). • 5. S. Salceda, J. Caro, J. Biol. Chem. 272, 22642-22647 (1997). • 6. L. E. Huang, J. Gu, M. Schau, H. F. Bunn, Proc. Natl. Acad. Sci. USA 95, 7987-7992 (1998). • 7. M. S. Wiesener, et al., Blood 92, 2260-2268 (1998). • 8. P. H. Maxwell, et al., Nature 399, 271-275 (1999). • 9. K. Iwai, et al., Proc. Natl. Acad. Sci. USA 96, 12436-12441 (1999). • 10. J. Lisztwan, G. Imbert, C. Wirbelauer, M. Gstaiger, W. Krek, Genes Dev 13, 1822-33 (1999). • 11. M. E. Cockman, et al., J Biol Chem (2000). • 12. M. Ohh, et al., Nat Cell Biol 2, 423-7. (2000). • 13. T. Kamura, et al., Proc Natl Acad Sci USA 97, 10430-5. (2000). • 14. K. Tanimoto, Y. Makino, T. Pereira, L. Poellinger, Embo J 19, 4298-309. (2000). • 15. M. A. Goldberg, S. P. Dunning, H. F. Bunn, Science 242, 1412-1415 (1988). • 16. G. L. Wang, G. L. Semenza, Blood 82, 3610-3615 (1993). • 17. G. L. Semenza, Cell 98, 281-284 (1999). • 18. Hypoxia (<0.1% oxygen) was obtained in a workstation with O2, CO2 and temperature control (Ruskinn Technologies, Leeds, UK). For hypoxic harvest, buffers were preincubated in the chamber overnight. […]

[1] = tested on: HIF-α prolyl-hydroxylase (HIF-PH) of cell extract; experiment: Modifying activity (HIF-PH) of cell extract on HIF substrate (Gal/HIF-1α549-582/VP16 or 19:WT), pVHL capture assay; type: biochemical, mammalian; conditions: titration, cell extract
Method: The unlabelled HIF-1α substrate was immunopurified on beads, washed, and aliquots incubated under different test conditions in buffer or cell extract. After further washing, the beads were assayed for ability to interact with 35-S labelled pVHL IVTT (21) which was then visualised by fluorography.
The capture of labelled pVHL by different HIF substrates was monitored after exposure to various test conditions.
We went on to test a series of 2-oxoglutarate analogues which act as competitive inhibitors of this class of enzyme (29) for ability to inhibit HIF-PH as assessed by the ability of cell extracts to modify either HIF polypeptide (19:WT) or a HIF fusion protein (Gal/HIF-1α549-582/VP16) so as to promote pVHL capture. […] In one such experiment the effect of N-oxalylglycine on pVHL capture by a biotinylated HIF polypeptides as substrate was monitored. The WT:19 and 19:Pro564Hyp polypeptides described above were used as substrates. […] The effect of dimethyl-oxalyglycine on HIF-1α expression was also studied. HIF-1α immunoblot analysis of extracts of Hep3B and U2OS cells exposed to dimethyl-oxalylgylcine (0, 0.1 or 1.0 mM) for 6 hours was carried out. […]

HIF-1α/pVHL interaction = biological target: T1, HIF-1α/pVHL interaction (Homo sapiens, UniProt P40337); experiment: Polypeptide blocking assay of HIF-1α and pVHL.HA IVTT mixture, anti-HA immunoprecipitation; type: binding; conditions: cell extract supplemented with Fe(II)
T1 construct: made in house; host or cells: TNT rabbit reticulocyte lysate (Promega), in vitro transcription/translation
Method: Further studies were performed using synthetic polypeptides as inhibitors of the HIF-1α/pVHL interaction (23). […] Results for a series of polypeptides derived from this domain are summarized in FIG. 1B and implicate a similar minimal interaction domain. […] This polypeptide comprises HIF-1α polypeptide residues 556 to 574 and its ability to block binding following exposure to a variety of direct oxidation conditions was assessed.
We synthesized a polypeptide (HIF-1α residues 556-574), containing a trans-4-hydroxy-S-proline residue at position 564 (19:Pro564Hyp), since the trans-4-hydroxylation is the commonest enzymatic proline oxidation (25). A polypeptide blocking assay was carried out using the 19:Pro564Hyp modified polypeptide and, as a control, the unmodified polypeptide without the trans-4-hydroxylation (19:WT). The 19:WT polypeptide was either incubated with cell extract before the binding assay or was untreated. The 19:Pro564Hyp polypeptide was added to a mixture of HIF-1α and pVHL-HA IVTTs at a concentration of 1, 0.25, 0.05 or 0.01 μM and the cell extract treated or untreated 19:WT polypeptide at a concentration of 0.5 μM. Interaction of HIF-1α with pVHL was then assayed by anti-HA immunoprecipitation. […] A pVHL capture assay was then carried out using biotinylated synthetic polypeptides. The same polypeptides, 19:Pro564Hyp and 19:WT were assessed for the ability to capture wild type or mutant (Pro86His) pVHL. […] In both cases capture was specific for wild type, as opposed to mutant, pVHL.
• 1. G. L. Semenza, Genes Dev 14, 1983-91. (2000). • 2. N. V. Iyer, et al., Genes Dev. 12, 149-162 (1997). • 3. E. Maltepe, J. V. Schmidt, D. Baunoch, C. A. Bradfield, M. C. Simon, Nature 386, 403-407 (1997). • 4. G. L. Wang, B.-H. Jiang, E. A. Rue, G. L. Semenza, Proc. Natl. Acad. Sci. USA 92, 5510-5514 (1995). • 5. S. Salceda, J. Caro, J. Biol. Chem. 272, 22642-22647 (1997). • 6. L. E. Huang, J. Gu, M. Schau, H. F. Bunn, Proc. Natl. Acad. Sci. USA 95, 7987-7992 (1998). • 7. M. S. Wiesener, et al., Blood 92, 2260-2268 (1998). • 8. P. H. Maxwell, et al., Nature 399, 271-275 (1999). • 9. K. Iwai, et al., Proc. Natl. Acad. Sci. USA 96, 12436-12441 (1999). • 10. J. Lisztwan, G. Imbert, C. Wirbelauer, M. Gstaiger, W. Krek, Genes Dev 13, 1822-33 (1999). • 11. M. E. Cockman, et al., J Biol Chem (2000). • 12. M. Ohh, et al., Nat Cell Biol 2, 423-7. (2000). • 13. T. Kamura, et al., Proc Natl Acad Sci USA 97, 10430-5. (2000). • 14. K. Tanimoto, Y. Makino, T. Pereira, L. Poellinger, Embo J 19, 4298-309. (2000). • 15. M. A. Goldberg, S. P. Dunning, H. F. Bunn, Science 242, 1412-1415 (1988). • 16. G. L. Wang, G. L. Semenza, Blood 82, 3610-3615 (1993). • 17. G. L. Semenza, Cell 98, 281-284 (1999). • 18. Hypoxia (<0.1% oxygen) was obtained in a workstation with O2, CO2 and temperature control (Ruskinn Technologies, Leeds, UK). For hypoxic harvest, buffers were preincubated in the chamber overnight. RCC4-VHL.HA, labelling conditions and co-immunoprecipitation assays have been described previously (11); in the current study 12.5 μM MG132 was used for proteasomal inhibition. For standard harvest, the cells were removed from the chamber after hypoxic exposure, prior to cell lysis. Co-immunoprecipitation assays on all lysates were performed at 4° C. under ambient oxygen conditions. […] When programming in hypoxia, reaction mix was preincubated in the workstation for 10 minutes before addition of the DNA template. […]

[2] = tested on: cytoplasmic extract-dependent modification of the 5′ VHL E3 target site; experiment: Peptide competition of cytoplasmic extract-dependent modification of GAL-HIF-1α 344-553, in vitro VHL E3 ubiquitylation; type: biochemical, human; conditions: 12.5 μM peptide, RCC4 cytoplasmic extract
Method: The E1 activating enzyme used in ubiquitylation assays was either obtained from Affiniti Research (Exeter, UK) or purified from BL21 (DE3) E. coli transfected with plasmid expressing His6-tagged mouse E1. His6-E1 was purified by Ni^2+-agarose affinity chromatography. After dialysis against phosphate buffered saline, glycerol was added to 10% (vol/vol) and 25 ng/μl aliquots stored at −80° C. Human CDC34 recombinant E2 enzyme was from Affiniti Research (Exeter, UK). VHL E3 was obtained by anti-HA immunoprecipitation from stably transfected 7860-VHLHA cell lysates (Iliopoulos et al). GAL-HIF-1α substrate was prepared by anti-GAL immunoprecipitation from [^35S] methionine-labeled TnT rabbit reticulocyte (Promega) translates. Each 40 μl ubiquitylation reaction consisted of 4 μl of 5 mg/ml ubiquitin, 4 μl of 10×ATP regenerating system (20 mM Tris pH7.5, 10 mM ATP, 10 mM magnesium acetate, 300 mM creatine phosphate, 0.5 mg/ml creatine phosphokinase), 2 μl, E1, 3 μl E2, 6 μl VHL E3 immunopurified on protein G sepharose, 6 μl GAL-HIF-1α substrate immunopurified on agarose beads. Reactions were incubated at 30° C. for 2 h with occasional mixing, stopped by the addition of SDS sample buffer and analysed by SDS-PAGE and autoradiography. Cytoplasmic extract-based ubiquitylation assays have been previously described (Cockman).
It has been shown above that the 3′ VHL E3 target site responds to oxygen level via hydroxylation at proline residue 564. This praline residue forms part of a potential motif conserved between the 5′ and 3′ target sites. Mutation of the corresponding proline residue (P402A) in the 5′ target site also results in functional inactivation. It was possible therefore that proline residue 402 was also a target for regulatory hydroxylation, To test this we asked whether polypeptides corresponding to the 3′ VHL E3 target site could interfere with the cytoplasmic extract-dependent modification of the 5′ VHL E3 target site. […]

T1 sequence (P40337 whole entry): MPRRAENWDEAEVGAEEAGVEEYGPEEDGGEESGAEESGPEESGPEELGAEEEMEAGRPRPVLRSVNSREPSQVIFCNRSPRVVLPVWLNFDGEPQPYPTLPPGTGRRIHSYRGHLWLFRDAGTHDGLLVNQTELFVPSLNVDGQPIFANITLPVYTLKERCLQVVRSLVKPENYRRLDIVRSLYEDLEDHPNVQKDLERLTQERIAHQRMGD

[Cl][Fe][Cl] [Fe(II), ferrous chloride, reference compound]
capture of HIF-1α by pVHL.HA (HIF-α/pVHL interaction): greatly enhanced capture
Fe(II) supplementation giving full activation of modifying activity [1]: 5 µM

Pro564Gly: HIF-1α 556-574 polypeptide where the critical proline is mutated to glycine (DLDLEMLAGYIPMDDDFQL; UniProt Q16665 556-574, looked up, fragment P564G)
blocking of HIF-1α/pVHL interaction by polypeptide after exposure to cell extract (HIF-1α/pVHL interaction): did not block
competition of cytoplasmic extract effect on VHL-dependent ubiquitylation of GAL 344-553 [2]: no effect
